Assay results as given in ChEMBL document CHEMBL1146883, “5'-O-tritylinosine and analogues as allosteric inhibitors of human thymidine phosphorylase” (J Med Chem, 2006).

Biological target: T1, Thymidine phosphorylase (Homo sapiens, UniProt P19971)
T1 sequence (P19971 whole entry): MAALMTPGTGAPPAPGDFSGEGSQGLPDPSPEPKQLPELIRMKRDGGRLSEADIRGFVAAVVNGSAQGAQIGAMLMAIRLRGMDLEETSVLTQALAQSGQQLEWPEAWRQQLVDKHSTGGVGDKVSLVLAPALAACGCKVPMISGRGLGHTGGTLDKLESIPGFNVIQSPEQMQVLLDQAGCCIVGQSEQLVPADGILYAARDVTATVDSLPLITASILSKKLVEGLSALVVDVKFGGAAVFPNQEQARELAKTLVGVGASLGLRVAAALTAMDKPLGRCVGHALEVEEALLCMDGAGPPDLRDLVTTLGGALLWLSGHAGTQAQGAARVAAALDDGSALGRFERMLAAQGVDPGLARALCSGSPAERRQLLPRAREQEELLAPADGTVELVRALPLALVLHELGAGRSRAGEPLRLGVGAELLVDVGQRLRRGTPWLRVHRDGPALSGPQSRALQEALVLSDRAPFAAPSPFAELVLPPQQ
Description: Inhibition of human TPase in presence of 100 uM thymidine

SMILES	IC50 [µM]
O=c1c2ncn([C@@H]3O[C@H](COCc4ccccc4)[C@@H](O)[C@H]3O)c2ncn1Cc1ccccc1	> 200
CNC(=O)c1ncn([C@@H]2O[C@H](COC(c3ccccc3)(c3ccccc3)c3ccccc3)[C@@H](O)[C@H]2O)c1N	137
NC(=O)c1ncn([C@@H]2O[C@H](COC(c3ccccc3)(c3ccccc3)c3ccccc3)[C@@H](O)[C@H]2O)c1N	≥ 40
COCCOCNC(=O)c1ncn([C@@H]2O[C@H](COC(c3ccccc3)(c3ccccc3)c3ccccc3)[C@@H](O)[C@H]2O)c1N	> 75
OC[C@@H](COC(c1ccccc1)(c1ccccc1)c1ccccc1)O[C@H](CO)n1cnc2c(O)ncnc21	> 200
COCCOCn1cnc2c(ncn2[C@@H]2O[C@H](COC(c3ccccc3)(c3ccccc3)c3ccccc3)[C@@H](OC(C)=O)[C@H]2OC(C)=O)c1=O	> 20
COCCOCn1cnc2c(ncn2[C@@H]2O[C@H](COC(c3ccccc3)(c3ccccc3)c3ccccc3)[C@@H](O)[C@H]2O)c1=O	> 100
